The source of these data is patent US20090269418A1, “Compositions and Methods for Inducing Hair Growth” (BioMas Ltd, priority 2004, published 2009).

“Also recorded” adds a separate entry of the source. Read-outs that look alike come from different tables or passages of the source.

Data set [1] deals with hair shedding / hair growth of the scalp in patients. In words: Small-scale human clinical study of 0.01% AS101 topical spray, TrichoScan hair density analysis. The data set is classed as in vivo. The text has this: Two small-scale human clinical studies were each conducted over a 6 month period to evaluate the potential use of an 0.01% AS101 spray formulation for the prevention of hair shedding and/or enhancing hair growth. Patients received no other alopecia treatment for at least 3 months prior to commencement of the study.
The sample group consisted of 36 patients, of which 6 withdrew due to non-compliance. Data from a further 14 patients was considered to be unsuitable for analysis with the TrichoScan system, for example, due to untraceable tattoos. 16 patients were therefore available for evaluation.
During an initial visit, a designated area of the scalp (about 0.7 cm^2) was shaved. Three days later, the area was tattooed using red ink, and photographed (Nikon digital camera). Patients were provided with a topical spray composition comprising 0.01% AS101 in 20% propylene glycol, 20% water and 60% ethyl alcohol, and were instructed to apply about 2 ml of the composition on the designated area on a daily basis for the first week, and once a day, twice a week thereafter. Patients were examined upon enrollment, and then after about 2 months, after about 3 months, and after about 6 months. Hair density, terminal hair density, and vellus hair density were analyzed, using the DatInf^R Image DB image archiving system, and TichoScan software.
Results were calculated in terms of hair density, terminal hair density, and vellus hair density.
FIGS. 2a and 2b present the data obtained for the hair density, terminal hair density and vellus hair density, each per cm^2, with two representative individuals of the study. The above parameters were measured at commencement of the study, after about 1 month, after about 3 months, and after about 6 months. All results were obtained using the DatInf^R Image DB image archiving system, and TichoScan software.

The subject of data set [2] is bone marrow toxicity and alopecia induced by chemotherapy. To be noted: cancer patients; cited from earlier work.
The subject of data set [3] is hair growth. The conditions noted are these: nude mice, normal mice; in nude mice systemic, oral or topical; cited from earlier work.
Data set [4] relates to hair growth. The conditions noted are these: humans; cited from earlier work.
For data set [5], the system named is anagen / catagen. To be noted: C57BL/6 mouse model; cited from earlier work.
The test system of data set [6] is KGF expression. The conditions noted are these: cultured fibroblasts; via Cys118 of p21ras, ras signalling pathway; cited from earlier work.
For data set [7], the system named is interferon (IFN). The conditions noted are these: mice; cited from earlier work.
In data set [8] the test system is interferon (IFN). To be noted: humans; cited from earlier work.
For data set [9], the system named is IL-1, IL-6, TNF-α, IL-10. To be noted: cited from earlier work.

Turning to `Cl[TeH]1(Cl)(Cl)OCCO1` [AS101, ammonium trichloro(dioxyethylene-O,O′)tellurate], in data set [1] (0.01% AS101 topical spray, 6 months), the side-effects result was “No side-effects were observed”. In addition, the “patients responding partially (increase observed during part of the treatment period)” value in data set [1] (0.01% AS101 topical spray, 6 months, 16 evaluable patients) came to 18.75%. Further, the “patients who completed the study responding with a consistent increase in hair density” value in data set [1] (0.01% AS101 topical spray, about 2 ml, daily first week then twice a week, 6 months, 16 evaluable patients) is recorded as 37.5%. In addition, the “hair density, terminal hair density and vellus hair density per cm^2” value in [1] (after about 1 month, representative person and person (FIGS. 2a, 2b)) is “significant increase”. Also, the “protection from bone marrow toxicity and alopecia induced by chemotherapy” value in [2] is “ability to protect”. Further, the “induction of hair growth” value in data set [3] and in [4] was “induce hair growth” throughout. In addition, in [5], the “anagen induction and retardation of spontaneous catagen” value was “induce anagen and retard spontaneous catagen”. In [6], the KGF expression entry is “upregulates KGF expression”. Also, the “interferon (IFN) induction” value in [7] and in [8] was “potent activator; also recorded: potent inducer” throughout. The IL-10 inhibition entry in data set [9] (m-RNA level) is “inhibit IL-10 at the m-RNA level”. Also, in [9] (macrophages are one main target), the “secretion of cytokines such as IL-1, IL-6 and TNF-α” value is on record as “induce the secretion”.
